Several values for one entry are separate records, joined by “and”; a condition that tells them apart may be missing. Identical values can stand only once.
Legend:
[1] = molecular target: α-HL (Staphylococcus aureus, UniProt P09616)
[2] = molecular target: α-hemolysin (Staphylococcus aureus, UniProt P09616)
[3] = test system: E. coli T7 S30 transcription/translation extract; type: biochemical
[4] = test system: E. coli S30 translation mixtures; type: biochemical
[5] = test system: rabbit red blood cells (rRBCs); type: cell-based
[6] = test system: E. coli T7 S30 transcription/translation extract; type: biochemical; remark: listed apart in the source

α-hemolysin, sequence (P09616 26-319, looked up, natural form): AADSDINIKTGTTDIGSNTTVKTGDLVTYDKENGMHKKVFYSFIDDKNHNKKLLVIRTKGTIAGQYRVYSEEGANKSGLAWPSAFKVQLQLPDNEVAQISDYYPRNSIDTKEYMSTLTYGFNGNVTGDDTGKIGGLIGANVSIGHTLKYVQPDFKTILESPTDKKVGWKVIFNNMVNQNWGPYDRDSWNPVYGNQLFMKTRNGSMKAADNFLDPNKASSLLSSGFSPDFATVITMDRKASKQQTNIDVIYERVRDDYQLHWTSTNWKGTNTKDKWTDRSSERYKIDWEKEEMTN
α-HL, sequence (P09616 26-319, looked up, natural form): as above

Compound: 4,4-difluoro-5,7-dimethyl-4-bora-3a,4a-diaza-s-indacene [BODIPY-FL]
- molar ratio of incorporated BODIPY-FL to protein [1]: 0.29+/−0.03%
- amount of alpha-hemolysin detectable [2]: Approximately 10 ng
- amount of protein detectable [2]: 0.3 ng
- amount of α-hemolysin detectable [2]: 0.35-0.5 nanograms
- smallest volume of original reaction mixture giving detectable α-HL band [2]: 0.007 µL

Compound: 4,4-difluoro-5,7-dimethyl-4-bora-3a, 4a-diaza-s-indacene propionic acid, sulfosuccinimidyl ester [BODIPY-FL, SSE]
- level of fluorescence of HL band compared to non-sulfonated form [3]: approximately 2 times

Compound: 5-(and-6)-carboxyfluorescein, succinimidyl-ester [Fluorescein (FAM)]
- fluorescence of α-HL band relative to BODIPY-FL-SSE [3]: 8.4%

Compound: 6-(fluorescein-5-(and-6) carboxamido)hexanoic acid, succinimidyl ester [Fluorescein (SFX)]
- fluorescence of α-HL band relative to BODIPY-FL-SSE [3]: 4.6%

Compound: 6-(tetramethylrhodamine-5-(and-6)-carboxamido)hexanoic acid, succinimidyl ester [5/6-TAMRA]
- fluorescence of α-HL band relative to BODIPY-FL-SSE [3]: 35%

Compound: Cc1c(CC(=O)ON2C(=O)CC(S(=O)(=O)O)C2=O)c(=O)oc2cc(N)ccc12 (stereo not drawn) [AMCA-sulfo-NHS, sulfosuccinimidyl 7-amino-4-methylcoumarin-3-acetate]
- detectability / incorporation of fluorescent α-HL bands [4]: easily detectable bands

Compound: COc1ccc(-c2cnc(-c3cc[n+](Cc4cccc(C(=O)ON5C(=O)CCC5=O)c4)cc3)o2)cc1 [PyMPO, 1-(3-(succinimidyloxycarbonyl)benzyl)-4-(5-(4-methoxyphenyl)oxazol-2-yl) pyridininium bromide]
- reduction in fluorescence compared with BODIPY-FL [3]: approximately an order of magnitude reduction in fluorescence

Compound: Alexa 350-N-hydroxy-succinimide ester
- detectability / incorporation of fluorescent α-HL bands [4]: seems to not incorporate as well as its neutral counterpart

Compound: succinimidyl 7-amino-methyl-amino-coumarin acetate [AMCA-NHS]
- detectability / incorporation of fluorescent α-HL bands [4]: very low levels of detectable fluorescent bands

Compound: α-Hemolysin
- α-Hemolysin activity [5]: 0.085 OD415 nm/μl and 0.083 OD415 nm/μl
- earliest time of band detection after initiation of incubation [6]: 5 min
